Source: US9745261B2, “Inhibitors of the MITF molecular pathway” (THE GENERAL HOSPITAL CORPORATION, priority 2013, dated 2017)

Legend:
Adenosine A2A = molecular target: T1, Adenosine A2A (Homo sapiens, UniProt P29274); assay: Radioligand binding, Adenosine A2A
T1 construct: Eurofins Panlabs, Inc. (contract assay) 200610 (assay number)

Adrenergic β2 = molecular target: T2, Adrenergic β2 (Homo sapiens, UniProt P07550); assay: Radioligand binding, Adrenergic β2
T2 construct: Eurofins Panlabs, Inc. (contract assay)
T2 sequence (P07550 whole entry): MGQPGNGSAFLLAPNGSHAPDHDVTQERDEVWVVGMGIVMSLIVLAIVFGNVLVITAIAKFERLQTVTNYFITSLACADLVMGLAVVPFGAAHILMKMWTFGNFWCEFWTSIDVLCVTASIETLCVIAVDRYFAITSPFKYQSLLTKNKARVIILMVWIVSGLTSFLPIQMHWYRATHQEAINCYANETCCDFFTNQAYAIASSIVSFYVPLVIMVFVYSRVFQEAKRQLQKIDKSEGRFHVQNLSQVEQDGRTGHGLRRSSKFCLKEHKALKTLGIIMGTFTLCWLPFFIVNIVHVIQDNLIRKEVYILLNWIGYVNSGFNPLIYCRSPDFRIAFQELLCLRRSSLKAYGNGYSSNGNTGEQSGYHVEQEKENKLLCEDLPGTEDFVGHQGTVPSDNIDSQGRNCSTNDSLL

[1] = molecular target: T3, Androgen (Testosterone) AR (Rattus norvegicus, UniProt P15207); assay: Radioligand binding, Androgen (Testosterone) AR
T3 construct: Eurofins Panlabs, Inc. (contract assay)
T3 sequence (P15207 whole entry S389L): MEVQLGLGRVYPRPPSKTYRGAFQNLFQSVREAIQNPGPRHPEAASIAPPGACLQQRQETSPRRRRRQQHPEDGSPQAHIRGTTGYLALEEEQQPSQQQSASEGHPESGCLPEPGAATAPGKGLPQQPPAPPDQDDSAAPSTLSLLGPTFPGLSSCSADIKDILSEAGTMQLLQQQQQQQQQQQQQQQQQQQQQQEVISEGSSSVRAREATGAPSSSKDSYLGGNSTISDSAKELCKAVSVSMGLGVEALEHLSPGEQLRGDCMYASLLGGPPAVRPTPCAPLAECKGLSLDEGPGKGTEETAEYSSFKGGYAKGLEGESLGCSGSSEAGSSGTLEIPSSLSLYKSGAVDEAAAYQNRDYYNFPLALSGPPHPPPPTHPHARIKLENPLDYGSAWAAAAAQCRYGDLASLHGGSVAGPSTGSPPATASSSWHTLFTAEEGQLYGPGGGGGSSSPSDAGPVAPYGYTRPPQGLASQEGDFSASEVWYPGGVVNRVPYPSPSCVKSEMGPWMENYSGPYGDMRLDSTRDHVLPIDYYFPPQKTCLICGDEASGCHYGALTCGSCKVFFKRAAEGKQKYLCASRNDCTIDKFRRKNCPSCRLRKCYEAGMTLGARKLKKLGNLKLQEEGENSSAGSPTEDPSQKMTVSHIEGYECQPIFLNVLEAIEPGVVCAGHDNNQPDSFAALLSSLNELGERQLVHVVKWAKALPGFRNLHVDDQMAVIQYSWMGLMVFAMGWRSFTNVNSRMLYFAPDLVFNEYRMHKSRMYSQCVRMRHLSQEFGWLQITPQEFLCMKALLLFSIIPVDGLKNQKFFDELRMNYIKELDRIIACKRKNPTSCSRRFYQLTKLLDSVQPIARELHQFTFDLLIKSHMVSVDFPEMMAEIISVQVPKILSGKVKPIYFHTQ

Dopamine D1 = molecular target: T4, Dopamine D1 (Homo sapiens, UniProt P21728); assay: Radioligand binding, Dopamine D1
T4 construct: Eurofins Panlabs, Inc. (contract assay)
T4 sequence (P21728 whole entry): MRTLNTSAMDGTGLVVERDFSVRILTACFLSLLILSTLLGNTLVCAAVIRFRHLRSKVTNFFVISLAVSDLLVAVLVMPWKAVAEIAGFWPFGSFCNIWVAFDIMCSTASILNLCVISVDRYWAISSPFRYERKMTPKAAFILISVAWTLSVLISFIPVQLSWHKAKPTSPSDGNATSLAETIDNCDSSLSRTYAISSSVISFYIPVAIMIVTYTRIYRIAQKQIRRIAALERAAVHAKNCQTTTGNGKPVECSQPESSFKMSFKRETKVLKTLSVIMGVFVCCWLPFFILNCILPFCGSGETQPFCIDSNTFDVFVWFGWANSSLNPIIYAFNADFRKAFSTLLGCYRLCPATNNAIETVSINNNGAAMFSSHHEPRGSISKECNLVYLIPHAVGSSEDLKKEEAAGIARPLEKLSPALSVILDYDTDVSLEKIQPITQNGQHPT

Estrogen ERα = molecular target: T5, Estrogen ERα (Homo sapiens, UniProt P03372); assay: Radioligand binding, Estrogen ERα
T5 construct: Eurofins Panlabs, Inc. (contract assay)
T5 sequence (P03372 whole entry): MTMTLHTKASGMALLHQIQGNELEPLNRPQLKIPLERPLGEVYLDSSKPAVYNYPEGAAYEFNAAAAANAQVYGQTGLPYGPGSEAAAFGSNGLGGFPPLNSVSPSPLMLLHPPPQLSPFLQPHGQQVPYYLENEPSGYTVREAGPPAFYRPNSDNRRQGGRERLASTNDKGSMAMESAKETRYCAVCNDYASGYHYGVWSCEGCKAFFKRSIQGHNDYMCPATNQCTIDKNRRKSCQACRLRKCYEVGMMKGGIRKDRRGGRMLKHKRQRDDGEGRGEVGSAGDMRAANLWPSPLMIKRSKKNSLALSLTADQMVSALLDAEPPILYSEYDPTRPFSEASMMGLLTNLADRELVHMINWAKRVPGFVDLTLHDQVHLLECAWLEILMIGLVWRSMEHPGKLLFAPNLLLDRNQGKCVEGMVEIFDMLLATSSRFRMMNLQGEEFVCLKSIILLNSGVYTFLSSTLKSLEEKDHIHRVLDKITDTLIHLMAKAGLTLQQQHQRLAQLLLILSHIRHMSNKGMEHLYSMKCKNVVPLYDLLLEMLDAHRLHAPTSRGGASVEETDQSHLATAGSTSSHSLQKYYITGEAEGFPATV

Glutamate, NMDA, Glycine = molecular target: T6, Glutamate, NMDA, Glycine (Rattus norvegicus, UniProt P35439); assay: Radioligand binding, Glutamate, NMDA, Glycine
T6 construct: Eurofins Panlabs, Inc

Histamine H1 = molecular target: T7, Histamine H1 (Homo sapiens, UniProt P35367); assay: Radioligand binding, Histamine H1
T7 construct: Eurofins Panlabs, Inc
T7 sequence (P35367 whole entry): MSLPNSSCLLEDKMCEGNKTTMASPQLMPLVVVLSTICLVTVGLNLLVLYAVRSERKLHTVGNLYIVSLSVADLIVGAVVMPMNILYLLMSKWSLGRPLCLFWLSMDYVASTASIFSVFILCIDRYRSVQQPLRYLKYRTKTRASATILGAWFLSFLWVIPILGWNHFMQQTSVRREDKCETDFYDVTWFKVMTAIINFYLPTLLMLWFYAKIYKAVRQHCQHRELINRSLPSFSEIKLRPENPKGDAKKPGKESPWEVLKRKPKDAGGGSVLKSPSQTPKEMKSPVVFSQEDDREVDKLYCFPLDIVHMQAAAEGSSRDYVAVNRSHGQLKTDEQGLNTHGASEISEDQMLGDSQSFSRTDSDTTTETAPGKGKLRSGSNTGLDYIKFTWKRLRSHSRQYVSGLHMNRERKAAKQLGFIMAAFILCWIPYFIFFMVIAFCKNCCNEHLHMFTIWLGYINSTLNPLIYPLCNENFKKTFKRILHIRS

[2] = molecular target: T8, Leukotriene, Cysteinyl CysLT1 (Homo sapiens, UniProt Q9Y271); assay: Radioligand binding, Leukotriene, Cysteinyl CysLT1
T8 construct: Eurofins Panlabs, Inc
T8 sequence (Q9Y271 whole entry): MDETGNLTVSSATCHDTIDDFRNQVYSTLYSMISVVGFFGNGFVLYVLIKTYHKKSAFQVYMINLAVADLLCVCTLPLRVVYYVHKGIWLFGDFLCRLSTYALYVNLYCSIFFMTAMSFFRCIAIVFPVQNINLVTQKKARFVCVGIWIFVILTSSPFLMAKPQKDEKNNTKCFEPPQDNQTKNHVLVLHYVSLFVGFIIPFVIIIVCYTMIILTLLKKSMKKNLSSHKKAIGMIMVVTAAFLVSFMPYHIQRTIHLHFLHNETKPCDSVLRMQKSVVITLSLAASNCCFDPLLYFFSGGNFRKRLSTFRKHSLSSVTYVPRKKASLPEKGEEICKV

Muscarinic M1 = molecular target: T9, Muscarinic M1 (Homo sapiens, UniProt P11229); assay: Radioligand binding, Muscarinic M1
T9 construct: Eurofins Panlabs, Inc
T9 sequence (P11229 whole entry): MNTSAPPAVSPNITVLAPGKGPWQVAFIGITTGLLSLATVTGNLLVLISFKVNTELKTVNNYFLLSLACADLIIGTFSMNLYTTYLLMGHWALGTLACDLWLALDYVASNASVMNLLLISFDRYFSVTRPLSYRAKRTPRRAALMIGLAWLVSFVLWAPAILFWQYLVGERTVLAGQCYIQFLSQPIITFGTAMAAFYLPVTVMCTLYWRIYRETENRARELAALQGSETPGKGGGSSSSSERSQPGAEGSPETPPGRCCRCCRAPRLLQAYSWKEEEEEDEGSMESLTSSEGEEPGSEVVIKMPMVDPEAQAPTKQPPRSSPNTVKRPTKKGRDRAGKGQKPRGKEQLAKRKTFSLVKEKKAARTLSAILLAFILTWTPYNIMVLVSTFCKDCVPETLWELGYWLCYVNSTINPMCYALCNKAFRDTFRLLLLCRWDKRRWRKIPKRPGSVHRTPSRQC

Potassium Channel [KATP] = molecular target: T10, Potassium Channel [KATP] (Cricetus cricetus, UniProt Q09427); assay: Radioligand binding, Potassium Channel [KATP]; conditions: hamster
T10 construct: Eurofins Panlabs
Protocol: To evaluate, in radioligand binding assays, the activity of the compound of Example 1 across a panel of 67 receptors.
Methods employed in this study have been adapted from the scientific literature to maximize reliability and reproducibility. Reference standards were run as an integral part of each assay to ensure the validity of the results obtained.
Where presented, IC50 values were determined by a non-linear, least squares regression analysis using MathIQ™ (ID Business Solutions Ltd., UK). Where inhibition constant (Ki) are presented, the Ki values were calculated using the equation of Cheng and Prusoff (Cheng. Y., Prusoff, W. H., Biochem. Pharmacol. 22:3099-3108, 1973) using the observed IC50 of the tested compound, the concentration of radioligand employed in the assay, and the historical values of the KD of the ligand (obtained experimentally at Eurofins Panlabs, Inc.). Where presented, the Hill coefficient (nH), defining the slope of the competitive binding curve, was calculated using MathIQ™. […] Where IC50, Ki, and/or nH data are presented without Standard Error of the Mean (SEM), data are insufficient to be quantitative, and the values presented (Ki, IC50, nH) should be interpreted with caution.

Prostanoid EP4 = molecular target: T11, Prostanoid EP4 (Homo sapiens, UniProt P35408); assay: Radioligand binding, Prostanoid EP4
T11 construct: Eurofins Panlabs
T11 sequence (P35408 whole entry): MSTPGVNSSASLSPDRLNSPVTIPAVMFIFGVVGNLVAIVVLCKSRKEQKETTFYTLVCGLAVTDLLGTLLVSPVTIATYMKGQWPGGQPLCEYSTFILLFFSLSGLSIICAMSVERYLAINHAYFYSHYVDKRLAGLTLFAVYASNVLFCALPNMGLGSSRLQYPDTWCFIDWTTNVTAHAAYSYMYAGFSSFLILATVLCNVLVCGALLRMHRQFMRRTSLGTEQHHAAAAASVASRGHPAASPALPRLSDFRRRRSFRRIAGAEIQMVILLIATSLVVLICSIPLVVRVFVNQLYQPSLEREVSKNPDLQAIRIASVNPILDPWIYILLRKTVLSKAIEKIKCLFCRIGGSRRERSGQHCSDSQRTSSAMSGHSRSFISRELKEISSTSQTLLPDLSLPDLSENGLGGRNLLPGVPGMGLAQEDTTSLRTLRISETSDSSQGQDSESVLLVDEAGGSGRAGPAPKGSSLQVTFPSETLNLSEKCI

TRPM-1 promoter = assay: SK-MEL-5 TRPM-1 luciferase reporter (TRPM-1 promoter activity assay); type: cell-based; conditions: Homo sapiens; SK-MEL-5 TRPM-1:luc cells, 24 hours, SteadyGlo; read-out: Target Potency IC50 (μM) TRPM1
Protocol: The TRPM1 luciferase promoter construct was transfected into the SK-MEL-5 melanoma cell line and a stable cell line was generated. This promoter is exquisitely sensitive to MITF over-expression and suppression and contains three canonical E-box motifs within the cloned promoter fragment (17). On day 0, cells were plated at 2,000 cells per well into white, opaque 384 well plates in phenol red-free media. On day 1, cells were treated with compounds or positive control for 24 hours. On day 2, 20 uL of SteadyGlo (Promega) was added per well and luminescence signal was determined with the Perkin-Elmer EnVision plate reader. Primary HTS data were analyzed in Genedata Screener Assay Analyzer. All values were normalized against DMSO treated samples and the positive control (18 μM parthenolide, CID 6473881). For the HTS, the average of two replicates was used to rank order activity and to choose compounds for retests. For dose studies, percent (%) activity was determined for each concentration and the concentration response curves (CRCs) were generated with Genedata Screener's Condoseo.
SK-MEL-5/TRPM1Luc cells were maintained in DMEM (10% FBS, 1% Pen-Strep-Glutamine, 250 ug/mL Hygromycin). […]
Day 3 • 5. […] Read on the Perkin-Elmer EnVision plate reader with ultra-sensitive luminescence (US LUM) settings for 0.5 sec per well SK-MEL-5 Cytotoxicity Assay (2084-02)

TRPM1 = assay: qPCR assay for TRPM1 expression in SK-MEL-5 cells; type: cell-based; conditions: Homo sapiens; SK-MEL-5 melanoma cells, up to 35 μM; read-out: TRPM-1 qPCR assay EC50

T1 sequence (P29274 whole entry): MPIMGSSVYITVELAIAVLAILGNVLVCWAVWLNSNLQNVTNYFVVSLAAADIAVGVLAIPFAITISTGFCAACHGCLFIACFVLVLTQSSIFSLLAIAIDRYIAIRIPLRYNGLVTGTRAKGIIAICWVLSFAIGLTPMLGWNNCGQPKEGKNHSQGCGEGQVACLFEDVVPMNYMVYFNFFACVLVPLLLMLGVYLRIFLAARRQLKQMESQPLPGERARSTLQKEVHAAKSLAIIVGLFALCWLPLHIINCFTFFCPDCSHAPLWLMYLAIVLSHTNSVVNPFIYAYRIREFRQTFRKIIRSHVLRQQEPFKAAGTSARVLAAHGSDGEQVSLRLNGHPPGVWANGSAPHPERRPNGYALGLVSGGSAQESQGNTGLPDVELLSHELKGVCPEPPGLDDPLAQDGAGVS

| SMILES | inhibition at 10 µM (Adenosine A2A) [%] | inhibition at 10 µM (Adrenergic β2) [%] | inhibition at 10 µM [1] [%] | inhibition at 10 µM (Dopamine D1) [%] | inhibition at 10 µM (Estrogen ERα) [%] | inhibition at 10 µM (Glutamate, NMDA, Glycine) [%] | inhibition at 10 µM (Histamine H1) [%] | inhibition at 10 µM [2] [%] | inhibition at 10 µM (Muscarinic M1) [%] | inhibition at 10 µM (Potassium Channel [KATP]) [%] | inhibition at 10 µM (Prostanoid EP4) [%] | IC50 (TRPM-1 promoter) [µM] | EC50 (TRPM1) [nM] |
| --- | --- | --- | --- | --- | --- | --- | --- | --- | --- | --- | --- | --- | --- |
| NS(=O)(=O)c1ccc(NC2=CC(=O)c3ccccc3C2=O)cc1 [Example 1, 4-((1,4-Dioxo-1,4-dihydronaphthalen-2-yl)amino)benzenesulfonamide] | 50 | 10 | 14 | 21 | 5 | 9 | -5 | 5 | 7 | 10 | 11 | – | – |
| NS(=O)(=O)c1ccc(NC2=CC(=O)c3ccccc3C2=O)cc1 [4-((1,4-dioxo-1,4-dihydronaphthalen-2-yl)amino)benzenesulfonamide] | – | – | – | – | – | – | – | – | – | – | – | 1.2 | 160 |
